Results reported in patent publication US10961215B2, “N-aryl and N-heteroaryl piperidine derivatives as liver X receptor beta agonists, compositions, and their use” (Merck Sharp & Dohme Corp., priority 2016, dated 2021).

Tests used:
[1] = biological target: T1, GST tagged LXRbeta LBD (ligand binding domain) (Homo sapiens, UniProt P55055); assay: LanthaScreen TR-FRET Liver X Receptor Coactivator Assay, LXR beta-LBD (co-activator recruitment; IP and % Emax relative to T0901317); type: biochemical; conditions: for EC50: Inflection Point of co-activator recruitment, LXR beta-LBD, TR-FRET; for Emax: efficacy at max dose in relation to reference T0901317, LXR beta-LBD, read-out: LXR beta actiivty at max dose (%)
T1 construct: purchased Invitrogen pv4658.pps
T1 sequence (P55055 222-460 limits assumed): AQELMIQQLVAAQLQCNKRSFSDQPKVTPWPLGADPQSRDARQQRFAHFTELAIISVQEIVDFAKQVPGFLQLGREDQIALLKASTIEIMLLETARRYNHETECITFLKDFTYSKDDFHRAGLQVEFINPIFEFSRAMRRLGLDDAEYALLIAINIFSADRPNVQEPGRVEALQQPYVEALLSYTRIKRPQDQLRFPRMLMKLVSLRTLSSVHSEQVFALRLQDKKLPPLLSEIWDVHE
Summary of the method: (§1)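 Readout is time-resolved FRET between a terbium anti-GST antibody bound to the tagged LBD and a fluorescein-labelled coactivator peptide recruited on ligand binding. Samples are incubated at room temperature before reading, and efficacy is expressed against T0901317.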

[2] = biological target: T2, GST tagged LXRalpha LBD (ligand binding domain) (Homo sapiens, UniProt Q13133); assay: LanthaScreen TR-FRET Liver X Receptor Coactivator Assay, LXR alpha-LBD (co-activator recruitment; IP and % Emax relative to T0901317); type: biochemical; conditions: for EC50 / LXR alpha IP (nM): Inflection Point of co-activator recruitment, LXR alpha-LBD, TR-FRET; for Emax: efficacy at max dose in relation to reference T0901317, LXR alpha-LBD, read-out: LXR alpha actiivty at max dose (%)
T2 construct: purchased Invitrogen pv4655
T2 sequence (Q13133 209-447 limits assumed): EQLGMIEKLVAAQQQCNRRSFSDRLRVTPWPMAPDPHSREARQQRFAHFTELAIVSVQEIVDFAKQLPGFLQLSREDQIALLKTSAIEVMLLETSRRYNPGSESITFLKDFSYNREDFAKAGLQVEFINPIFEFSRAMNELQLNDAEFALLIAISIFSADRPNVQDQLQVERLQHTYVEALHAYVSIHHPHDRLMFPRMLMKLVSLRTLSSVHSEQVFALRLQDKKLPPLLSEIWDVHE
Summary of the method: as §1

EC50 [1]	Emax [1]	EC50 [2]	Emax [2]	LXR alpha IP (nM) [2]	SMILES
14 nM	73%	534 nM	44%	–	CN(C)C(=O)c1ccc(N2CCC3(CC2)CC3CCN(C)C(=O)[C@](O)(c2ccccc2)C(F)(F)F)cc1Cl (stereo partly drawn) [Example 7-2, 2-chloro-N,N-dimethyl-4-(1-(2-((R)-3,3,3-trifluoro-2-hydroxy-N-methyl-2-phenylpropanamido)ethyl)-6-azaspiro[2.5]octan-6-yl)benzamide]
32 nM	61%	601 nM	24%	–	CN(C)C(=O)c1ccc(N2CCC3(CC2)C[C@@H]3CCN(C)C(=O)[C@](O)(c2cccc(OC3CC3)c2)C(F)(F)F)cc1Cl [Example 7-3, 2-chloro-4-((R)-1-(2-((R)-2-(3-cyclopropoxyphenyl)-3,3,3-trifluoro-2-hydroxy-N-methylpropanamido)ethyl)-6-azaspiro[2.5]octan-6-yl)-N,N-dimethylbenzamide]
11 nM	68%	381 nM	55%	–	CN(C)C(=O)c1ccc(N2CCC3(CC2)C[C@@H]3CCN(C)C(=O)[C@](O)(c2ccccc2)C(F)(F)F)cc1Cl [Example 7-5, 2-chloro-N,N-dimethyl-4-((R)-1-(2-((R)-3,3,3-trifluoro-2-hydroxy-N-methyl-2-phenylpropanamido)ethyl)-6-azaspiro[2.5]octan-6-yl)benzamide]
21 nM	76%	439 nM	33%	–	COc1cccc([C@@](O)(C(=O)N(C)CC[C@H]2CC23CCN(c2ccc(C(=O)N(C)C)c(Cl)c2)CC3)C(F)(F)F)c1 [Example 7-6, 2-chloro-N,N-dimethyl-4-((R)-1-(2-((R)-3,3,3-trifluoro-2-hydroxy-2-(3-methoxyphenyl)-N-methylpropanamido)ethyl)-6-azaspiro[2.5]octan-6-yl)benzamide]
82 nM	56%	1270 nM	33%	–	CNC(=O)c1ccc(N2CCC3(CC2)C[C@@H]3CCN(C)C(=O)[C@](O)(c2cccc(OC)c2)C(F)(F)F)cc1Cl [Example 7-8, 2-chloro-N-methyl-4-((R)-1-(2-((R)-3,3,3-trifluoro-2-hydroxy-2-(3-methoxyphenyl)-N-methylpropanamido)ethyl)-6-azaspiro[2.5]octan-6-yl)benzamide]
109 nM	52%	775 nM	25%	–	COc1cccc([C@@](O)(C(=O)N(C)CC[C@H]2CC23CCN(c2ccc(C(=O)NC4CC4)c(Cl)c2)CC3)C(F)(F)F)c1 [Example 7-9, 2-chloro-N-cyclopropyl-4-((R)-1-(2-((R)-3,3,3-trifluoro-2-hydroxy-2-(3-methoxyphenyl)-N-methylpropanamido)ethyl)-6-azaspiro[2.5]octan-6-yl)benzamide]
100 nM	58%	1060 nM	35%	–	COc1cccc([C@@](O)(C(=O)N(C)CC[C@H]2CC23CCN(c2ccc(C(=O)NC(C)C)c(Cl)c2)CC3)C(F)(F)F)c1 [Example 7-10, 2-chloro-N-isopropyl-4-((R)-1-(2-((R)-3,3,3-trifluoro-2-hydroxy-2-(3-methoxyphenyl)-N-methylpropanamido)ethyl)-6-azaspiro[2.5]octan-6-yl)benzamide]
81 nM	60%	1150 nM	42%	–	CN(CC[C@H]1CC12CCN(c1ccc(C(=O)NC3CC3)c(Cl)c1)CC2)C(=O)[C@](O)(c1ccccc1)C(F)(F)F [Example 7-11, 2-chloro-N-cyclopropyl-4-((R)-1-(2-((R)-3,3,3-trifluoro-2-hydroxy-N-methyl-2-phenylpropanamido)ethyl)-6-azaspiro[2.5]octan-6-yl)benzamide]
79 nM	64%	765 nM	47%	–	CC(C)NC(=O)c1ccc(N2CCC3(CC2)C[C@@H]3CCN(C)C(=O)[C@](O)(c2ccccc2)C(F)(F)F)cc1Cl [Example 7-12, 2-chloro-N-isopropyl-4-((R)-1-(2-((R)-3,3,3-trifluoro-2-hydroxy-N-methyl-2-phenylpropanamido)ethyl)-6-azaspiro[2.5]octan-6-yl)benzamide]
14 nM	55%	158 nM	32%	–	CC(C)N(C)C(=O)c1ccc(N2CCC3(CC2)C[C@@H]3CCN(C)C(=O)[C@](O)(c2ccccc2)C(F)(F)F)cc1Cl [Example 7-13, 2-chloro-N-isopropyl-N-methyl-4-((R)-1-(2-((R)-3,3,3-trifluoro-2-hydroxy-N-methyl-2-phenylpropanamido)ethyl)-6-azaspiro[2.5]octan-6-yl)benzamide]
18 nM	55%	–	6%	No IP	COc1cccc([C@@](O)(C(=O)N(C)CC[C@H]2CC23CCN(c2ccc(C(=O)N(C)C(C)C)c(Cl)c2)CC3)C(F)(F)F)c1 [Example 7-14, 2-chloro-N-isopropyl-N-methyl-4-((R)-1-(2-((R)-3,3,3-trifluoro-2-hydroxy-2-(3-methoxyphenyl)-N-methylpropanamido)ethyl)-6-azaspiro[2.5]octan-6-yl)benzamide]
12 nM	58%	680 nM	37%	–	COc1cccc([C@@](O)(C(=O)N(C)CC[C@H]2CC23CCN(c2ccc(C(=O)N(C)C)c(Cl)n2)CC3)C(F)(F)F)c1 [Example 7-15, 2-chloro-N,N-dimethyl-6-((R)-1-(2-((R)-3,3,3-trifluoro-2-hydroxy-2-(3-methoxyphenyl)-N-methylpropanamido)ethyl)-6-azaspiro[2.5]octan-6-yl)nicotinamide]
101 nM	54%	1790 nM	40%	–	COc1cccc([C@@](O)(C(=O)N(C)CC[C@H]2CC23CCN(c2ccc(C(=O)NC4CC4)c(Cl)n2)CC3)C(F)(F)F)c1 [Example 7-16, 2-chloro-N-cyclopropyl-6-((R)-1-(2-((R)-3,3,3-trifluoro-2-hydroxy-2-(3-methoxyphenyl)-N-methylpropanamido)ethyl)-6-azaspiro[2.5]octan-6-yl)nicotinamide]
12 nM	59%	160 nM	36%	–	COc1cccc([C@@](O)(C(=O)N(C)CC[C@H]2CC23CCN(c2ccc(C(=O)N(C)C(C)C)c(Cl)n2)CC3)C(F)(F)F)c1 [Example 7-17, 2-chloro-N-isopropyl-N-methyl-6-((R)-1-(2-((R)-3,3,3-trifluoro-2-hydroxy-2-(3-methoxyphenyl)-N-methylpropanamido)ethyl)-6-azaspiro[2.5]octan-6-yl)nicotinamide]
45 nM	57%	–	16%	No IP	COc1cccc([C@@](O)(C(=O)N(C)CC[C@H]2CC23CCN(c2ccc(C(=O)N(C)C4CC4)c(Cl)n2)CC3)C(F)(F)F)c1 [Example 7-18, 2-chloro-N-cyclopropyl-N-methyl-6-((R)-1-(2-((R)-3,3,3-trifluoro-2-hydroxy-2-(3-methoxyphenyl)-N-methylpropanamido)ethyl)-6-azaspiro[2.5]octan-6-yl)nicotinamide]
1550 nM	36%	–	12%	No IP	CNC(=O)c1ccc(N2CCC3(CC2)C[C@H]3CCN(C)C(=O)[C@](O)(c2cccc(OC)c2)C(F)(F)F)cc1Cl [Example 7-21, 2-chloro-N-methyl-4-((S)-1-(2-((R)-3,3,3-trifluoro-2-hydroxy-2-(3-methoxyphenyl)-N-methylpropanamido)ethyl)-6-azaspiro[2.5]octan-6-yl)benzamide]
572 nM	43%	–	3%	No IP	COc1cccc([C@@](O)(C(=O)N(C)CC[C@@H]2CC23CCN(c2ccc(C(=O)N(C)C)c(Cl)c2)CC3)C(F)(F)F)c1 [Example 7-22, 2-chloro-N,N-dimethyl-4-((S)-1-(2-((R)-3,3,3-trifluoro-2-hydroxy-2-(3-methoxyphenyl)-N-methylpropanamido)ethyl)-6-azaspiro[2.5]octan-6-yl)benzamide]
2070 nM	32%	–	7%	No IP	COc1cccc([C@@](O)(C(=O)N(C)CC[C@@H]2CC23CCN(c2ccc(C(=O)NC(C)C)c(Cl)c2)CC3)C(F)(F)F)c1 [Example 7-23, 2-chloro-N-isopropyl-4-((S)-1-(2-((R)-3,3,3-trifluoro-2-hydroxy-2-(3-methoxyphenyl)-N-methylpropanamido)ethyl)-6-azaspiro[2.5]octan-6-yl)benzamide]
1410 nM	37%	–	16%	No IP	CNC(=O)c1ccc(N2CCC3(CC2)C[C@H]3CCN(C)C(=O)[C@](O)(c2ccccc2)C(F)(F)F)cc1Cl [Example 7-24, 2-chloro-N-methyl-4-((S)-1-(2-((R)-3,3,3-trifluoro-2-hydroxy-N-methyl-2-phenylpropanamido)ethyl)-6-azaspiro[2.5]octan-6-yl)benzamide]
